Measured values reported in PMC12363935, “Unc-51 Like Kinase 3 (ULK3) is essential for autophagy and cell survival in multiple myeloma” (Research Square, 2025).

Columns and labels:
BRD4-1 = biological target: T1, BRD4-1 (Homo sapiens, UniProt O60885); assay: Bromodomain profiling assay, AlphaScreen binding, H4/4Ac ligand; settings: NA = no activity
T1 construct: evaluated against Bromodomain 1 by Reaction Biology Corporation; purchased Reaction Biology Corporation
Method: 331 Bromodomain profiling assay
333 evaluated against Bromodomain 1 by Reaction Biology Corporation.
334 The compounds were subjected to testing using a 10-dose IC50 singlet approach, involving a 3-
335 fold serial dilution starting at 10 μM, specifically against BRD4-1. Additionally, as a benchmark,
340 Detection was carried out through the AlphaScreen Binding assay with excitation/emission
341 wavelengths set at 680/520-620 nm, respectively, using the Enspire platform.
342 The data acquisition included raw data, represented as signal-background*, % Binding (relative to
343 DMSO controls), and curve fits.

U266-Luc MM cells = assay: U266-Luc in vivo model, tail vein injection; settings: 10 mg/kg/day subcutaneously, M-F
Method: For the U266-Luc model, 1 × 10^6 cells (100 μl/PBS) were tail vein injected into 4- to 6-week-old female and male NSG mice. […] Endpoint was represented by hind limb paralysis or >20% weight loss. When sacrificed, tumors tibiae were harvested and fixed in 10% neutral buffered formalin for 24 hours. Bioluminescent signal is reported as the average of the sum of dorsal and ventral signal of the mice/group/timepoint. […]
28 Animal Experimentation: All animal experiments were performed with approval from the
29 Moffitt/University of South Florida Institutional Animal Care and Use Committee (Protocol
31 validation of MA9 efficacy (Figure 4), we initially included n = 10 mice per treatment group:
Randomization based on sex, weight,
33 and initial tumor burden was conducted, followed by treatment with either vehicle control (n = 6),
35 Tumor progression was tracked via bioluminescence: endpoint was paralysis or >20% weight loss.
36 Experiments were blinded. […]
38 For MA9 therapy efficacy, mice were treated with vehicle (n=10) or MA9 (10 mg/kg/day,
39 subcutaneously, M-F from day 20; n=10) (Supplementary Fig. 7E, F). Survival and toxicity
40 (weight, clinical signs) was monitored.
43 Luciferase-labeled MM cells 5TGM1-Luc (RRID: CVCL_VI66) and U266-Luc (RRID: […]
51 cells (all from the ATCC, USA) were routinely cultured at 37 °C in Roswell Park Memorial
53 FBS1) and penicillin/streptomycin (hereafter, complete medium).
54 Cells were not used for five days following PI-treatment. All myeloma cell lines were […]

[1] = tested on: co-cultured stromal cells; assay: EMMA ex vivo platform, co-cultured stroma; type: cell-based; settings: highest concentration 20 μM
Method: Figure 7. MA9–060 treatment compromises the survival of patient NDMM and RRMM cells ex vivo. A. Representative viability (live cell imaging) response of CD138^+ cells from NDMM patient (Pt620) cultured and tested in autologous stromal microenvironment in EMMA’s ex vivo platform, exposed to three different concentrations of MA9–060 (0.7, 2.2, 6.7 μM). […] (not shown here – 20 μM). B. Ex vivo EMMA platform assay to quantify the chemosensitivity of primary CD138^+ MM cells plated in a collagen matrix with bone marrow stroma and patient plasma. […] C. […] H. Immunoblot showing levels of indicated proteins in CD138^+ cells isolated from RRMM patients (Pt971, Pt1050). Pt1050 CD138^+ cells were assessed for ULK3-mediated autophagy related proteins (ATGs), following treatment with MA9–060 (1μM at 2 and 6 hours).
402 aspirate cells were enriched for CD138+ expression using Miltenyi (Bergisch Gladbach, Germany)
403 130-051-301 antibody-conjugated magnetic beads. MM cells (CD138+) were seeded in Corning
404 Cell BIND 384 well plates (Corning, NY) with collagen I and previously established human-
405 derived stroma, containing approximately 4000 MM cells and 1000 stromal cells. Each well was
406 filled with 80μL of RPMI 1640 media supplemented with fetal bovine serum (FBS, heat […]
422 images acquired for each well, we quantified non-destructively, and without the need to separate […]

For `Cc1cnc(Nc2ccc(C3CCN(C)CC3)c(F)c2)nc1Nc1ccc(Cl)c(NS(=O)(=O)C(C)(C)C)c1` [MA9060], which IC50 (BRD4-1) is on record?
Its IC50 is 3.8 nM.

What about the “MM-induced osteolysis (X-ray, histology)” value (U266-Luc MM cells) of the same compound?
Its value is “significantly protected against MM-induced osteolysis”.

And the “toxicity (weight loss, lethargy, ruffled hair)” value (U266-Luc MM cells)?
The value was “did not show any sign of toxicity”.

And the “tumor growth (bioluminescence) vs control” value (U266-Luc MM cells)?
Its value is “significantly impaired tumor growth”.

And the “toxicity (weight loss, lethargy, ruffled hair)” value (U266-Luc MM cells; listed as MA9)?
Its value is “no overt toxicities”.

What about the “toxicity for co-cultured stromal cells” value [1] of the same compound?
Its value is “no toxicity”.
